Measurements: PubChem BioAssay AID1918956 (Molecular Pharmacology Branch, DTP, NCI, 2023)

System: OVCAR-5 complex spheroids, viability
Experiment: Anticancer human tumor OVCAR-5 cell line growth inhibition;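 further: spheroids exposed to agents for seven days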;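 on viability, T/C: 100% = DMSO vehicle control wells viability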
Details: for IC50: curve of first compound; for viability, T/C: stronger effect = lower value
How it was run: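 Drug combinations with the LSD1 inhibitor iadademstat tested on tumor cells co-cultured as spheroids with endothelial cells and mesenchymal stem cells. Concentrations descended in half-log increments from clinical Cmax or 10 microM.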

[1] = second compound 0.1 µM, first compound 0.0316 µM
[2] = second compound 0.1 µM, first compound 0.1 µM
[3] = second compound 0.1 µM, first compound 0.316 µM
[4] = second compound 0.1 µM, first compound 1 µM
[5] = second compound 0.1 µM, first compound 3.16 µM
[6] = second compound 0.1 µM, first compound 10 µM
[7] = second compound 0.316 µM, first compound 0.0316 µM
[8] = second compound 0.316 µM, first compound 0.1 µM
[9] = second compound 0.316 µM, first compound 0.316 µM
[10] = second compound 0.316 µM, first compound 1 µM
[11] = second compound 0.316 µM, first compound 3.16 µM
[12] = second compound 0.316 µM, first compound 10 µM
[13] = second compound 1 µM, first compound 0.0316 µM
[14] = second compound 1 µM, first compound 0.1 µM
[15] = second compound 1 µM, first compound 0.316 µM
[16] = second compound 1 µM, first compound 1 µM
[17] = second compound 1 µM, first compound 3.16 µM
[18] = second compound 1 µM, first compound 10 µM
[19] = second compound 3.16 µM, first compound 0.0316 µM
[20] = second compound 3.16 µM, first compound 0.1 µM
[21] = second compound 3.16 µM, first compound 0.316 µM
[22] = second compound 3.16 µM, first compound 1 µM
[23] = second compound 3.16 µM, first compound 3.16 µM
[24] = second compound 3.16 µM, first compound 10 µM
[25] = second compound 10 µM, first compound 0.0316 µM
[26] = second compound 10 µM, first compound 0.1 µM
[27] = second compound 10 µM, first compound 0.316 µM
[28] = second compound 10 µM, first compound 1 µM
[29] = second compound 10 µM, first compound 3.16 µM
[30] = second compound 10 µM, first compound 10 µM

## CC(C)c1c(-c2ccccc2)nc2c(C#N)c[nH]n2c1=O + NC1CCC(NC2CC2c2ccccc2)CC1
Second compound 0.1 µM
  IC50: > 10000 nM
Second compound 0.316 µM
  IC50: > 10000 nM
Second compound 1 µM
  IC50: > 10000 nM
Second compound 3.16 µM
  IC50: > 10000 nM
Second compound 10 µM
  IC50: > 10000 nM
[1]
  viability, T/C: 114%
[2]
  viability, T/C: 124%
[3]
  viability, T/C: 108%
[4]
  viability, T/C: 130%
[5]
  viability, T/C: 113%
[6]
  viability, T/C: 117%
[7]
  viability, T/C: 119%
[8]
  viability, T/C: 122%
[9]
  viability, T/C: 114%
[10]
  viability, T/C: 104%
[11]
  viability, T/C: 118%
[12]
  viability, T/C: 121%
[13]
  viability, T/C: 110%
[14]
  viability, T/C: 105%
[15]
  viability, T/C: 111%
[16]
  viability, T/C: 113%
[17]
  viability, T/C: 115%
[18]
  viability, T/C: 106%
[19]
  viability, T/C: 92.9%
[20]
  viability, T/C: 102%
[21]
  viability, T/C: 108%
[22]
  viability, T/C: 101%
[23]
  viability, T/C: 89.3%
[24]
  viability, T/C: 93.5%
[25]
  viability, T/C: 88.5%
[26]
  viability, T/C: 81.5%
[27]
  viability, T/C: 77.4%
[28]
  viability, T/C: 79.9%
[29]
  viability, T/C: 82.7%
[30]
  viability, T/C: 79.3%

## CC(C)CC(NC(=O)C(Cc1ccccc1)NC(=O)c1cnccn1)B(O)O (stereo not given) + NC1CCC(NC2CC2c2ccccc2)CC1
Second compound 0.1 µM
  IC50: 7.78 nM
Second compound 0.316 µM
  IC50: 8.49 nM
Second compound 1 µM
  IC50: 7.89 nM
Second compound 3.16 µM
  IC50: 7.42 nM
Second compound 10 µM
  IC50: 6.4 nM
Second compound 0.1 µM, first compound 0.000316 µM
  viability, T/C: 92%
Second compound 0.1 µM, first compound 0.001 µM
  viability, T/C: 100%
Second compound 0.1 µM, first compound 0.00316 µM
  viability, T/C: 84.3%
Second compound 0.1 µM, first compound 0.01 µM
  viability, T/C: 39.5%
[1]
  viability, T/C: 16.2%
[2]
  viability, T/C: 6.2%
Second compound 0.316 µM, first compound 0.000316 µM
  viability, T/C: 97.3%
Second compound 0.316 µM, first compound 0.001 µM
  viability, T/C: 97.9%
Second compound 0.316 µM, first compound 0.00316 µM
  viability, T/C: 87.4%
Second compound 0.316 µM, first compound 0.01 µM
  viability, T/C: 42.6%
[7]
  viability, T/C: 16.1%
[8]
  viability, T/C: 5.03%
Second compound 1 µM, first compound 0.000316 µM
  viability, T/C: 88.6%
Second compound 1 µM, first compound 0.001 µM
  viability, T/C: 98.8%
Second compound 1 µM, first compound 0.00316 µM
  viability, T/C: 85.2%
Second compound 1 µM, first compound 0.01 µM
  viability, T/C: 39.9%
[13]
  viability, T/C: 15.4%
[14]
  viability, T/C: 5.03%
Second compound 3.16 µM, first compound 0.000316 µM
  viability, T/C: 79.8%
Second compound 3.16 µM, first compound 0.001 µM
  viability, T/C: 104%
Second compound 3.16 µM, first compound 0.00316 µM
  viability, T/C: 78.6%
Second compound 3.16 µM, first compound 0.01 µM
  viability, T/C: 39%
[19]
  viability, T/C: 13.6%
[20]
  viability, T/C: 4.87%
Second compound 10 µM, first compound 0.000316 µM
  viability, T/C: 84.4%
Second compound 10 µM, first compound 0.001 µM
  viability, T/C: 82.3%
Second compound 10 µM, first compound 0.00316 µM
  viability, T/C: 73.4%
Second compound 10 µM, first compound 0.01 µM
  viability, T/C: 35.1%
[25]
  viability, T/C: 10.2%
[26]
  viability, T/C: 3.83%

## COc1cc(C2c3cc4c(cc3C(OC3OC5COC(C)OC5C(O)C3O)C3COC(=O)C23)OCO4)cc(OC)c1O (stereo not given) + NC1CC1c1ccc(-c2cccc(O)c2)cc1
Second compound 0.1 µM
  IC50: 407 nM
Second compound 0.316 µM
  IC50: 503 nM
Second compound 1 µM
  IC50: 397 nM
Second compound 3.16 µM
  IC50: 422 nM
Second compound 10 µM
  IC50: 302 nM
Second compound 0.1 µM, first compound 0.00949 µM
  viability, T/C: 94.9%
Second compound 0.1 µM, first compound 0.03 µM
  viability, T/C: 93.3%
Second compound 0.1 µM, first compound 0.0949 µM
  viability, T/C: 80.2%
Second compound 0.1 µM, first compound 0.3 µM
  viability, T/C: 55.3%
Second compound 0.1 µM, first compound 0.949 µM
  viability, T/C: 36.1%
Second compound 0.1 µM, first compound 3 µM
  viability, T/C: 32.5%
Second compound 0.316 µM, first compound 0.00949 µM
  viability, T/C: 96.7%
Second compound 0.316 µM, first compound 0.03 µM
  viability, T/C: 109%
Second compound 0.316 µM, first compound 0.0949 µM
  viability, T/C: 91.8%
Second compound 0.316 µM, first compound 0.3 µM
  viability, T/C: 61.7%
Second compound 0.316 µM, first compound 0.949 µM
  viability, T/C: 35.8%
Second compound 0.316 µM, first compound 3 µM
  viability, T/C: 32.3%
Second compound 1 µM, first compound 0.00949 µM
  viability, T/C: 100%
Second compound 1 µM, first compound 0.03 µM
  viability, T/C: 103%
Second compound 1 µM, first compound 0.0949 µM
  viability, T/C: 85.5%
Second compound 1 µM, first compound 0.3 µM
  viability, T/C: 56.8%
Second compound 1 µM, first compound 0.949 µM
  viability, T/C: 31.4%
Second compound 1 µM, first compound 3 µM
  viability, T/C: 32.4%
Second compound 3.16 µM, first compound 0.00949 µM
  viability, T/C: 89.1%
Second compound 3.16 µM, first compound 0.03 µM
  viability, T/C: 85.2%
Second compound 3.16 µM, first compound 0.0949 µM
  viability, T/C: 74.9%
Second compound 3.16 µM, first compound 0.3 µM
  viability, T/C: 55%
Second compound 3.16 µM, first compound 0.949 µM
  viability, T/C: 38.4%
Second compound 3.16 µM, first compound 3 µM
  viability, T/C: 34.6%
Second compound 10 µM, first compound 0.00949 µM
  viability, T/C: 85.1%
Second compound 10 µM, first compound 0.03 µM
  viability, T/C: 88.8%
Second compound 10 µM, first compound 0.0949 µM
  viability, T/C: 67.5%
Second compound 10 µM, first compound 0.3 µM
  viability, T/C: 53.3%
Second compound 10 µM, first compound 0.949 µM
  viability, T/C: 35.2%
Second compound 10 µM, first compound 3 µM
  viability, T/C: 37%

## COc1ccc([C@@H](O)c2cc(-c3ncnc4cc(N5CCOCC5)ccc34)c(F)cc2Cl)nn1 + NC1CC1c1ccc(-c2cccc(O)c2)cc1
Second compound 0.1 µM
  IC50: 625 nM
Second compound 0.316 µM
  IC50: 740 nM
Second compound 1 µM
  IC50: 419 nM
Second compound 3.16 µM
  IC50: 396 nM
Second compound 10 µM
  IC50: 300 nM
[1]
  viability, T/C: 80.8%
[2]
  viability, T/C: 72.6%
[3]
  viability, T/C: 55.3%
[4]
  viability, T/C: 46.4%
[5]
  viability, T/C: 29.5%
[6]
  viability, T/C: 16.4%
[7]
  viability, T/C: 92.3%
[8]
  viability, T/C: 79.1%
[9]
  viability, T/C: 61.4%
[10]
  viability, T/C: 45.3%
[11]
  viability, T/C: 31.8%
[12]
  viability, T/C: 18.1%
[13]
  viability, T/C: 86.3%
[14]
  viability, T/C: 73.4%
[15]
  viability, T/C: 57.1%
[16]
  viability, T/C: 31.7%
[17]
  viability, T/C: 25.8%
[18]
  viability, T/C: 16.7%
[19]
  viability, T/C: 84%
[20]
  viability, T/C: 68%
[21]
  viability, T/C: 49.9%
[22]
  viability, T/C: 38.8%
[23]
  viability, T/C: 31.6%
[24]
  viability, T/C: 15.9%
[25]
  viability, T/C: 79.1%
[26]
  viability, T/C: 65.3%
[27]
  viability, T/C: 46.7%
[28]
  viability, T/C: 36.6%
[29]
  viability, T/C: 29.6%
[30]
  viability, T/C: 16.6%
